Results as given in paper PMC4041448 (2014).

Tests used:
[1] = tested on: U·U RNA hairpin (5'CNG/3'GNC panel) (RNA, mismatch bulge abasic) GGGAGAGGGUUUAAUCUGUACGAAAGUACUGAUUGGAUCCGCAAGG; assay: competition dialysis; conditions: 110 mM KCl, 2 mM MgCl2, 2 mM CaCl2, 8 mM Na phosphate; 1 mM EDTA, pH 7.0, 20–22°C; 1 μM ligand, 1.56 μM RNA; bound ligand concentration
[2] = tested on: RNA hairpin with six 5'CUG/3'GUC internal loops (RNA, repeat) GGGAGAGGGUUUAAUCUGCUGCUGCUGCUGCUGUACGAAAGUACUGCUGCUGCUGCUGCUGAUUGGAUCCGCAAGG; assay: competition dialysis; conditions: 110 mM KCl, 2 mM MgCl2, 2 mM CaCl2, 8 mM Na phosphate; 1 mM EDTA, pH 7.0, 20–22°C; 1 μM ligand, 1.33 μM RNA; compared with MBNL1 protein
[3] = tested on: Cy3-(CUG)10 RNA (RNA, repeat) CUGCUGCUGCUGCUGCUGCUGCUGCUGCUG; assay: fluorescence titration (Cy3 emission); conditions: HEPES-buffered saline; 0.5% DMSO, 0.005% Tween-20; one-site fit
[4] = tested on: A-G RNA hairpin (5'CNG/3'GNC panel) (RNA, mismatch bulge abasic) GGGAGAGGGUUUAAUCAGUACGAAAGUACGGAUUGGAUCCGCAAGG; assay: competition dialysis; conditions: 110 mM KCl, 2 mM MgCl2, 2 mM CaCl2, 8 mM Na phosphate; 1 mM EDTA, pH 7.0, 20–22°C; 1 μM ligand, 1.56 μM RNA; bound ligand concentration
[5] = tested on: no loop RNA (RNA, hairpin) GGGAGAGGGUUUAAUCAGUACGAAAGUACUGAUUGGAUCCGCAAGG; assay: competition dialysis; conditions: 110 mM KCl, 2 mM MgCl2, 2 mM CaCl2, 8 mM Na phosphate; 1 mM EDTA, pH 7.0, 20–22°C; 1 μM ligand, 1.56 μM RNA; bound ligand concentration

binding [1]	binding [2]	KD [3] [nM]	Bound Dilomofungin (Cb) [4] [nM]	Bound Dilomofungin (Cb) [5] [nM]	SMILES
yes	yes	606 ± 300	77.8 ± 33	228 ± 77	COC(=O)c1ccc(O)c2nc3c(C=O)c(O)c(-c4c(O)c(C=O)c5nc6c(O)ccc(C(=O)OC)c6nc5c4O)c(O)c3nc12
yes	yes	998 ± 180			COC(=O)c1ccc(O)c2nc3c(C=O)c(O)cc(O)c3nc12
